Measured values as given in patent publication US12502391B2, “Multi-kinase inhibitors of VEGF and TGF beta and uses thereof” (AIVIVA BIOPHARMA, INC., priority 2018, dated 2025).
Where two headings read alike, the source gives them in different places.

Experiments:
subconjunctival scarring = assay: Bleb survival after glaucoma filtration surgery in rabbit eyes; assay type: in vivo, rabbits
Experimental: In order to investigate the anti-scarring effect of topically applied test compounds following ocular surgeries, glaucoma filtration surgery was performed on rabbit eyes. Postoperative subconjunctival wound healing is a major cause of late bleb failure after glaucoma filtration surgery in humans. Select multikinase inhibitors were tested for effect on bleb survival over time. Inhibition of subconjunctival fibrosis following surgery will improve bleb survival. Vehicle was used as a negative control and pirfenidone was used a positive control.
A scleral tract was created in the left eyes superiorally by tunneling a beveled 22-gauge intravenous cannula through the sclera, beginning behind the limbus and continuing until the cannula is visible in the anterior chamber. The cannula was flushed with sodium heparin (1000 units) prior to placement. The cannula needle was withdrawn and the cannula advanced beyond the pupillary margin to prevent iris blockage of the tube. The cannula was trimmed approximately 2 mm and secured to the sclera using suture. Both the Tenon's and the conjunctiva were sutured with 9-0 Prolene. Six rabbits were used per group and the left eye of each rabbit underwent glaucoma filtration surgery. The treatment groups include vehicle control, pirfenidone (1%, w/v) as a positive control, sorafenib (0.3%, w/v), and lenvatinib (0.3%, w/v). Eyedrops (35 uL) were topically applied to the eyes following surgery three times day for 30 days. All animals were sacrificed on Day 30.
Bleb was monitored throughout the study. Bleb volumes were measured with the use of calibrated calipers. […] There were differences noted between groups at Day 7, and the majority of blebs were gone by Day 14 through Day 30 indicating bleb failure due to subconjunctival scarring. Results of the vehicle and pirfenidone groups were similar to those reported in the literature (Zhong H et al., Invest Ophthalmol Vis Sci, 52: 3136-3142, 2011).

subretinal fibrosis = assay: Laser-induced subretinal fibrosis model in mice; assay type: in vivo, C57BL/6 mice; conditions: for effect on subretinal fibrosis: approximately 1 μL intravitreally on day of laser application, Days 15 and 35; for neovascular lesion sizes: approximately 1 μL of 1% (w/w) intravitreally on day of laser application
Experimental: The anti-fibrotic effects of test compounds were also evaluated in a subretinal fibrosis model in C57BL/6 mice. Three to five lesions were generated in the Bruch's membrane of the study eye using laser photocoagulation (75-μm spot size, 0.1-s duration, 90 mW, OcuLight TX 532 nm). Subretinal fibrosis started to form 5-7 days post laser application. Test compounds having certain spectrum of multikinase inhibition activities or vehicle were intravitreally injected on the day of laser application. The dosing concentration of the test compounds was 1% (w/w) of nintedanib and lenvatinib. The control groups were vehicle and mouse VEGF164 antibody. There were 12 mice per treatment group. Approximately, 1 μL each of the test compounds, vehicle, or positive control was injected intravitreally to the right eye of each animal. On Days 15 and 35, the eyes were examined with fluorescein angiography, followed by enucleation. Immunostaining on the dissected choroid was used to assess subretinal fibrosis (e.g., collagen 1, isolectin B4 and/or DAPI). The primary antibodies used were fluorescence conjugated isolectin B4 (FITC-conjugated isolectin B4) and anti-collagen type I antibody. […] Thus, these compounds can be used to treat subretinal fibrosis associated with proliferative retinal diseases.

[1] = Ocular tissue and plasma distribution after topical ocular instillation (LC-MS/MS); assay type: in vivo, New Zealand White rabbits; conditions: male, New Zealand White, rabbit
Experimental: The objective of this study was to assess the local tolerance and ocular distribution of sorafenib and lenvatinib (0.3% w/w) when administered by topical ocular instillation in the eyes. Five to six male New Zealand White rabbits were used per treatment group. Each right eye received a 35 μL eyedrop of the vehicle, sorafenib (0.3% w/w), or lenvatinib (0.3% w/w) three times daily for 5 days. On Dosing Day 5, the animals were sacrificed and eyes were enucleated, and plasma and the ocular tissues were collected. Tissue and plasma concentrations of the compounds were measured by LC-MS/MS.

[2] = test system: LL37-induced inflammation; assay: Histopathology (inflammation, CD4+ and CD8+ lymphocyte scores) in LL37-induced dermal inflammation model; assay type: in vivo; conditions: mice, single intradermal injection 1.6 mg, LL-37 challenge, 48 hours
Experimental: (§1) In our study, mice were injected subcutaneously with 40 μl of LL-37 (3.3 mg/mL) to induce inflammatory reactions. Immediately following the LL-37 injection, axitinib, nintedanib, sunitinib, or lenvatinib were individually administered as a single intradermal injection (1.6 mg). LL-37 injection was repeated every 12 hours for a total of 4 injections. Endotoxin-free water and dexamethasone (3 mg/kg by intraperitoneal injection, twice), respectively, were used as negative and positive control groups.
At 48 hours after the initial LL-37 injection, the dorsal skin was photographed, and the severity of skin lesions were scored for redness and measured for areas of involvement.
(§2) Mice were then anaesthetized, and tissue samples of lesion sites were excised and fixed for H&E stainings and immunohistochemical analysis. Markers for inflammation (CD4 and CD8) were determined using specific antibodies. TGF beta levels are measured by mRNA expression using qPCR.
The tissue samples were analyzed for inflammation characteristics. Histopathology endpoints included inflammation, and CD4+ and CD8+T-lymphocyte immunostaining. For inflammation scores, tissues were examined histologically and scored for inflammatory cell infiltrate.

TGF-β1 mRNA = TGF-β1 mRNA expression (qPCR) in skin of LL-37-challenged mice; assay type: in vivo; conditions: single intradermal injection 1.6 mg
Experimental: as §1, §2
The TGFb1 mRNA expression in mice induced with LL37 and treated with lenvatinib was 79% of that challenged with LL37 alone (i.e., without treatment).

[3] = test system: rabbit ear hypertrophic scar; assay: Histopathology of rabbit ear wounds (neovascularization, fibrosis, re-epithelization); assay type: in vivo, New Zealand white rabbits; design: key to Total Score, Treated Mean: aggregate of neovascularization, fibrosis, re-epithelization grades; key to Neovascularization score, Treated Mean / Fibrosis/Collagen score, Treated Mean / Re-epithelization score, Treated Mean: five-step severity grade: minimal, mild, moderate, marked, severe; conditions: rabbit ear wound, intradermal dosing of 1 wt. %; for Total Score, Treated Mean: aggregation of microscopic findings; for Fibrosis/Collagen score, Treated Mean / Neovascularization score, Treated Mean / Re-epithelization score, Treated Mean: five-step severity grading (minimal to severe)
Experimental: In New Zealand white rabbits, maintained under a surgical plane of anesthesia, trauma stimulation of the skin on the ventral surface of both ears is initiated on Day 1. Trauma sites are evaluated on Days 8, 15, 22, 29, 36, and 43. On days 15 and 29, each site is dosed with test compounds (e.g., 1% w/w, 100 μl) by intradermal or intralesional injections.
At necropsy, each treatment site was harvested and preserved for hematoxylin and […] and Mason's trichrome stainings. Each lesion was examined histologically and graded for neovascularization, fibrosis and re-epithelization using a five-step/severity grading system (minimal, mild, moderate, marked, and severe). The average total score is an aggregation of these microscopic findings relating to an inflammatory response.

In the case of `COc1cc2nccc(Oc3ccc(NC(=O)NC4CC4)c(Cl)c3)c2cc1C(N)=O` [lenvatinib], the “bleb survival on Day 7” value (subconjunctival scarring; eyedrops 35 uL three times a day, pirfenidone 1% w/v, lenvatinib 0.3% w/v, compared to vehicle and sorafenib groups) is reported as “kept bleb survival on Day 7”, the “effect on subretinal fibrosis” value (subretinal fibrosis) is reported as “therapeutic effects in the treatment of subretinal fibrosis” and the “neovascular lesion sizes” value (subretinal fibrosis) is reported as “marked reductions in neovascular lesion sizes”. For the same molecule, the concentration at 5 day of dosing ([1]; in vivo, Ocular tissue concentration, Aqueous Humor, Mean) was 5.49 ng/g, the concentration at 5 day of dosing ([1]; in vivo, Ocular tissue concentration, Choroid, Mean) was 38 ng/g and the concentration at 5 day of dosing ([1]; in vivo, Ocular tissue concentration, Conjunctiva, Mean) was 300 ng/g. For the same molecule, the concentration at 5 day of dosing ([1]; in vivo, Ocular tissue concentration, Cornea, Mean) was 178 ng/g, the concentration at 5 day of dosing ([1]; in vivo, Ocular tissue concentration, Iris Ciliary Body, Mean) was 18.2 ng/g and the concentration at 5 day of dosing ([1]; in vivo, Ocular tissue concentration, Retina, Mean) was 23.5 ng/g. It also gave a concentration at 5 day of dosing ([1]; in vivo, Ocular tissue concentration, Sclera, Mean) of 49 ng/g, a concentration at 5 day of dosing ([1]; in vivo, Ocular tissue concentration, Vitreous Humor, Mean) of 0.619 ng/g and a concentration at 5 day of dosing ([1]; in vivo, plasma concentration, mean (±SD)) of 131 ng/mL. For the same molecule, the “scores of inflammation (inflammatory cell infiltrate), words” value [2] was “prominent reductions”, the “TGF-β1 mRNA expression among all treatment groups” value (TGF-β1 mRNA; LL-37 challenge) was “lowest TGF-β1 mRNA expression” and the “TGFb1 mRNA expression relative to LL37 alone (without treatment)” value (TGF-β1 mRNA; LL-37 every 12 hours x4, 48 hours after initial LL-37 injection) was 79%.

In the case of `COC(=O)c1ccc2c(c1)NC(=O)/C2=C(\Nc1ccc(N(C)C(=O)CN2CCN(C)CC2)cc1)c1ccccc1` [nintedanib], the “effect on subretinal fibrosis” value (subretinal fibrosis) is reported as “therapeutic effects in the treatment of subretinal fibrosis”, the “neovascular lesion sizes” value (subretinal fibrosis) is reported as “marked reductions in neovascular lesion sizes” and the “angiogenesis/neovascularization and fibrosis by histopathology versus untreated wounds (words)” value [3] is reported as “decreased angiogenesis and fibrosis”. The “average total score of test wounds, fold lower than untreated wounds” value [3] was “about 1.33 fold”, the “Total Score, Treated Mean” value [3] was 4.5 and the “Fibrosis/Collagen score, Treated Mean” value [3] was 3. For the same molecule, the “Neovascularization score, Treated Mean” value [3] was 1, the “Re-epithelization score, Treated Mean” value [3] was 0.5 and the “angiogenesis/neovascularization and fibrosis by histopathology versus untreated wounds (words)” value ([3]; listed as Nintedanib) was “much less neovascularization and about the same fibrosis as untreated wounds”. For the same molecule, the “scores of inflammation (inflammatory cell infiltrate), words” value [2] was “prominent reductions”.

With `CNC(=O)c1cc(Oc2ccc(NC(=O)Nc3ccc(Cl)c(C(F)(F)F)c3)cc2)ccn1` [sorafenib] the “bleb failure on Day 14” value (subconjunctival scarring; 0.3% w/v eyedrops three times a day, 6 eyes per group) was “all of the sorafenib treated eyes demonstrated bleb failure”, the concentration at 5 day of dosing ([1]; aqueous humor, topical, 0.3 % w/w (35 μL eyedrop), rabbit eyes, topical instillation of 0.3% three times daily for five days, N=6, read-out: Ocular tissue concentration, Aqueous Humor, Mean) was 0 ng/g and the concentration at 5 day of dosing ([1]; choroid, topical, 0.3 % w/w (35 μL eyedrop), rabbit eyes, topical instillation of 0.3% three times daily for five days, N=6, read-out: Ocular tissue concentration, Choroid, Mean) was 8.19 ng/g. It also gave a concentration at 5 day of dosing ([1]; conjunctiva, topical, 0.3 % w/w (35 μL eyedrop), rabbit eyes, topical instillation of 0.3% three times daily for five days, N=6, read-out: Ocular tissue concentration, Conjunctiva, Mean) of 860 ng/g, a concentration at 5 day of dosing ([1]; cornea, topical, 0.3 % w/w (35 μL eyedrop), rabbit eyes, topical instillation of 0.3% three times daily for five days, N=6, read-out: Ocular tissue concentration, Cornea, Mean) of 131 ng/g and a concentration at 5 day of dosing ([1]; iris ciliary body, topical, 0.3 % w/w (35 μL eyedrop), rabbit eyes, topical instillation of 0.3% three times daily for five days, N=6, read-out: Ocular tissue concentration, Iris Ciliary Body, Mean) of 3.34 ng/g. It also gave a concentration at 5 day of dosing ([1]; plasma, topical, 0.3 % w/w (35 μL eyedrop), 0.3% w/w eyedrop 35 μL three times daily, Day 5 of dosing, read-out: plasma concentration, mean (±SD)) of 5.09 ng/mL, a concentration at 5 day of dosing ([1]; retina, topical, 0.3 % w/w (35 μL eyedrop), rabbit eyes, topical instillation of 0.3% three times daily for five days, N=6, read-out: Ocular tissue concentration, Retina, Mean) of 17.4 ng/g and a concentration at 5 day of dosing ([1]; sclera, topical, 0.3 % w/w (35 μL eyedrop), rabbit eyes, topical instillation of 0.3% three times daily for five days, N=6, read-out: Ocular tissue concentration, Sclera, Mean) of 16.4 ng/g. The concentration at 5 day of dosing ([1]; vitreous humor, topical, 0.3 % w/w (35 μL eyedrop), rabbit eyes, topical instillation of 0.3% three times daily for five days, N=6, read-out: Ocular tissue concentration, Vitreous Humor, Mean) was 0.11 ng/g, the “angiogenesis/neovascularization and fibrosis by histopathology versus untreated wounds (words)” value [3] was “do not show any reduction in angiogenesis” and the “Total Score, Treated Mean” value [3] was 5.8. The “Fibrosis/Collagen score, Treated Mean” value [3] was 2.5, the “Neovascularization score, Treated Mean” value [3] was 3 and the “Re-epithelization score, Treated Mean” value [3] was 0.3. The “angiogenesis/neovascularization and fibrosis by histopathology versus untreated wounds (words)” value ([3]; listed as Sorafenib) was “slightly increased neovascularization, and similar or slightly increased fibrosis”.
